The source of these data is patent US20260317327A1, “CRYSTRAL OF QUINOLINE-SUBSTITUTED COMPOUND” (TAIHO PHARMACEUTICAL CO., LTD., priority 2023, published 2026).

Series [1] in a line: Solid stability test (closed system, storage at 60 °C or 80 °C, HPLC purity, crystal form, appearance). The class given is physicochemical. Conditions: for Change amount (purity) 2 weeks after / Purity 2 weeks after / Color tone change 2 weeks after / Change amount (purity) 4 weeks after / Purity 4 weeks after / Color tone change 4 weeks after: closed system; for Color tone change 2 weeks after / Color tone change 4 weeks after: visual; for Purity at the beginning: HPLC 220 nm. As to the method:
A temperature influence was tested by using the type I crystal, solvate crystal type “b”, and amorphous solid of the compound (1) obtained in Example 1, Comparative Example 1, and Reference Example 1, respectively. An evaluation was performed by the following procedure. In addition, with regard to the appearances of the crystals and the amorphous solid, the states thereof before and after their storage were visually observed. • Storage condition: 60° C. or 80° C. (closed system) (HIFLEX (high-temperature storage machine manufactured by ETAC Engineering Co., Ltd.)) • Storage period: 2 weeks and 4 weeks • Storage amount: about 100 mg • Storage container: a glass bottle
A change in amount of related substances (amount of substances detected in addition to the compound (1)) was analyzed by HPLC in accordance with the following method. A product obtained as follows was used as a sample for analysis: about 1 mg of each sample was weighed as the compound (1); the sample was dissolved in 10 mL of a mixed liquid of acetonitrile and water (3:1 v/v); and 5 μL of the liquid was accurately weighed out.
The amount of the related substances in the sample solution was measured by HPLC analysis. The handling of each apparatus including data processing followed a method and a procedure instructed in the apparatus. • Column: InertSustain C18HP (4.6 mm×150 mm, 3 μm) manufactured by GL Sciences Inc. • UV detection: 220 nm • Column temperature: 40° C. • Flow rate: 1.0 mL/min • Sample cooler: 5° C. • Sample concentration: 0.1 mg/mL • Mobile phase A: 0.1% phosphoric acid • Mobile phase B: acetonitrile

Series [2] can be described thus: Dynamic vapor sorption (DVS) test. The series is classed as physicochemical. As to the method:
A vapor sorption test was performed by using each of the type I crystal, solvate crystal type “b”, and amorphous solid of the compound (1) obtained in Example 1, Comparative Example 1, and Reference Example 1, respectively. The vapor sorption test was performed in accordance with the following conditions. About 10 mg of a sample was loaded into a dedicated holder made of quartz, and the weights of the sample at respective humidities were continuously measured and recorded under the following conditions.

For a further series, the system named is EGFR. The conditions noted are these: as disclosed in Patent Document 1 (WO 2015/025936 A1); cited from earlier work.
Series [3] can be described thus: Comparison of type I crystal with metastable crystal and hydrate crystal (hygroscopicity, storage stability; data not shown). The conditions noted are these: compared to metastable crystal and hydrate crystal. The series is classed as physicochemical. From the text:
In addition to Comparative Example 1, a metastable crystal and a hydrate crystal of the compound (1) were obtained and compared with the type I crystal obtained according to the method described in Example 1.

In the case of `C=CC(=O)N[C@H]1C=C(C)c2c(-c3cnc4ccccc4c3)c3c(N)ncnc3n2C1` [Amorphous solid, (S)—N-(4-amino-6-methyl-5-(quinolin-3-yl)-8,9-dihydropyrimido[5,4-b]indolizin-8-yl)acrylamide], in series [1] (60 °C), the “Change amount (purity) 2 weeks after” value is −0.66%, the “Purity 2 weeks after” value was found to be 98.09%, the “Color tone change 2 weeks after” value is recorded as “Absent” and the “Change amount (purity) 4 weeks after” value is given as −0.85%. Further, in series [1] (60 °C), the “Purity 4 weeks after” value is 97.90% and the “Color tone change 4 weeks after” value is on record as “Absent”. In series [1] (80 °C), the “Change amount (purity) 2 weeks after” value is given as −6.38%, the “Purity 2 weeks after” value was 92.37%, the “Color tone change 2 weeks after” value is on record as “Coloring” and the “Change amount (purity) 4 weeks after” value is reported as −7.90%. For the same compound, in series [1] (80 °C), the “Purity 4 weeks after” value was 90.85% and the “Color tone change 4 weeks after” value is on record as “Coloring”. Also, in series [1] (storage at 60 °C series), the “Purity at the beginning” value was determined as 98.75%. In addition, the “Purity at the beginning” value in series [1] (storage at 80 °C series) came to 98.75%. Further, the Weight increase in series [2] (50% RH, 25 °C) is on record as at least 2%. In series [2] (95% RH, 25 °C), the Weight increase entry was “about 10%”.

On to `C=CC(=O)N[C@H]1C=C(C)c2c(-c3cnc4ccccc4c3)c3c(N)ncnc3n2C1` [Solvate crystal type “b”, (S)—N-(4-amino-6-methyl-5-(quinolin-3-yl)-8,9-dihydropyrimido[5,4-b]indolizin-8-yl)acrylamide], for which, in series [1] (60 °C), the “Change amount (purity) 2 weeks after” value is reported as −10.60%, the “Purity 2 weeks after” value turned out to be 88.16%, the “Color tone change 2 weeks after” value is given as “Absent” and the “Change amount (purity) 4 weeks after” value is −11.55%. Moreover, in series [1] (60 °C), the “Purity 4 weeks after” value was 87.21% and the “Color tone change 4 weeks after” value was “Absent”. In series [1] (80 °C), the “Change amount (purity) 2 weeks after” value was −14.49%, the “Purity 2 weeks after” value is recorded as 84.57%, the “Color tone change 2 weeks after” value is recorded as “Absent” and the “Change amount (purity) 4 weeks after” value was −15.38%. In series [1] (80 °C), the “Purity 4 weeks after” value amounted to 83.38% and the “Color tone change 4 weeks after” value is listed as “Absent”. In series [1] (storage at 60 °C series), the “Purity at the beginning” value came out at 98.76%. Further, the “Purity at the beginning” value in series [1] (storage at 80 °C series) is given as 98.76%. For the same compound, the “Weight increase profile (in words)” value in series [2] (5-95% RH, 25 °C) is “substantially linear weight increase starting from a low-humidity region”. The same compound registered a Weight increase in series [2] (95% RH, 25 °C) of at least 5%.

For `C=CC(=O)N[C@H]1C=C(C)c2c(-c3cnc4ccccc4c3)c3c(N)ncnc3n2C1` [compound (1), (S)—N-(4-amino-6-methyl-5-(quinolin-3-yl)-8,9-dihydropyrimido[5,4-b]indolizin-8-yl)acrylamide], the “EGFR-inhibiting action (in words)” value in the series on EGFR is recorded as “excellent EGFR-inhibiting action”.

As for `C=CC(=O)N[C@H]1C=C(C)c2c(-c3cnc4ccccc4c3)c3c(N)ncnc3n2C1` [Type I crystal, (S)—N-(4-amino-6-methyl-5-(quinolin-3-yl)-8,9-dihydropyrimido[5,4-b]indolizin-8-yl)acrylamide], in series [1] (60 °C / 80 °C, 2 and 4 weeks), the “Chemical purity on storage (in words)” value is reported as “substantially remained unchanged” and the “Overall stability of crystal (in words)” value is on record as “extremely stable crystal”. For the same compound, in series [1] (60 °C / 80 °C, 2 and 4 weeks, HPLC), the “Amount of related substances on storage (in words)” value was “substantially no increase in amount of related substances”. The “Crystal form and color tone on storage (in words)” value in series [1] (60 °C / 80 °C, 2 and 4 weeks, compared to solvate crystal type “b” and amorphous solid) is reported as “showed no changes”. In series [1] (60 °C), the “Change amount (purity) 2 weeks after” value is on record as 0.06%, the “Purity 2 weeks after” value is listed as 98.90%, the “Color tone change 2 weeks after” value is on record as “Absent” and the “Change amount (purity) 4 weeks after” value is listed as 0.02%. In addition, in series [1] (60 °C), the “Purity 4 weeks after” value is 98.86% and the “Color tone change 4 weeks after” value is “Absent”. Moreover, in series [1] (80 °C), the “Change amount (purity) 2 weeks after” value is 0.05%, the “Purity 2 weeks after” value is 98.89%, the “Color tone change 2 weeks after” value was “Absent” and the “Change amount (purity) 4 weeks after” value worked out at 0.07%. Further, in series [1] (80 °C), the “Purity 4 weeks after” value was 98.91% and the “Color tone change 4 weeks after” value is reported as “Absent”. Also, in series [1] (storage at 60 °C series), the “Purity at the beginning” value is given as 98.84%. The “Purity at the beginning” value in series [1] (storage at 80 °C series) is on record as 98.84%. Also, the Weight increase in series [2] (95% RH, 25 °C) is listed as 1.28%. Moreover, in series [2] (compared to the solvate crystal type “b” and amorphous solid), the “Hygroscopicity (in words)” value is recorded as “less hygroscopic”. Besides, in series [2] (up to 75% RH, 25 °C), the Weight increase result is given as “less than 0.4%”. Moreover, in series [3], the “Hygroscopicity, storage stability, etc. (in words)” value is “better properties in terms of hygroscopicity, storage stability, etc”.
